System: healthy subjects
Assay: Life Changes Inventory (LCI)
Assay type: in vivo, human
Excerpt: In some embodiments, the Life Changes Inventory (LCI) questionnaire is utilized to evaluate the safety and/or efficacy of psilocybin. The LCI is designed as a questionnaire to investigate those variables present in the day-to-day experience of adults that might relate either to stability or decline of intellectual ability.
The following list of outcome measures are non-exhaustive. • a. The short-term change from Baseline (Day −1 [Visit 2]) to Day 7 (Visit 5) in cognitive measures of attention, spatial and working memory and executive function was measured by a composite score of the CANTAB Panel (Spatial Working Memory [SWM], Rapid Visual Information Processing [RVP], Paired Associates Learning [PAL]). • b. The short-term change from Baseline (Day −1 [Visit 2]) to Day 7 (Visit 5) in Social Cognition Panel scales (Pictorial Empathy Test [PET], Reading the Mind in the Eyes Test [RMET], Toronto Empathy Questionnaire [TEQ], Social Value Orientation [SVO], Scale of Social Responsibility [SSR]). • c. The change from Baseline (Day −1 [Visit 2]) to Day 28 (Visit 6) in cognitive measures of attention, spatial and working memory and executive function as measured by a composite score of the CANTAB Panel (SWM, RVP, PAL). • d. The long-term change from Baseline (Day −1 [Visit 2]) to Day 84 (Visit 7) in Social Cognition Panel scales (PET, RMET, TEQ, SVO, SSR). • e. Dose-related differences between cognitive effects of psilocybin at Baseline (Day −1 [Visit 2]), Day 7 (Visit 5) and Day 28 (Visit 6), as measured by a composite score of the CANTAB Panel (SWM, RVP, PAL). • f. Dose-related differences between psychological effects of psilocybin at Baseline (Day −1 [Visit 2]), Day 7 (Visit 5) and Day 84 (Visit 7), as measured by Social Cognition Panel scales (PET, RMET, TEQ, SVO, SSR). • g. Differences in cognitive effects of psilocybin between psilocybin-naïve and experienced subjects at Baseline (Day −1 [Visit 2]), Day 7 (Visit 5) and Day 28 (Visit 6), as measured by a composite score of the CANTAB Panel (SWM, RVP, PAL). • h. Differences in Positive and Negative Affect Schedule (PANAS) after study drug administration on Day 0 (Visit 3). • i. Differences between psilocybin and placebo in the Emotion Recognition Test (ERT), Intra-Extra Dimensional Set Shift (IED), One Touch Stockings (OTS), Verbal Fluency and Digit Span Forward at Day 7 (Visit 5). • j. A composite score of the CANTAB Panel, including the following tests: • i. Spatial Working Memory (SWM) (performed at Visit 2, Visit 5, and Visit 6). • ii. Rapid Visual Information Processing (RVP) (performed at Visit 2, Visit 5, and Visit 6). • iii. Paired Associates Learning (PAL) (performed at Visit 2, Visit 5, and Visit 6). • k. Cognitive Flexibility Panel • i. Emotion Recognition Task (ERT) (performed at Visit 5). • ii. Intra-Extra Dimensional Set Shift (IED) (performed at Visit 5). • iii. One Touch Stockings (OTS) (performed at Visit 5). • iv. Verbal Fluency (performed at Visit 5). • v. Digit Span Forward (performed at Visit 5). • l. Five Dimension Altered States of Consciousness questionnaire (5D-ASC) (performed at Visit 3). • m. PANAS (performed at Visit 2 and Visit 3). • n. NEO-Five Factor Inventory (NEO-FFI) (performed at Visit 2, Visit 5, and Visit 7). • o. Symptom Checklist-90 item (SCL-90) (performed at Visit 2, Visit 5, and Visit 7). • p. Life Changes Inventory (LCI): The LCI measures changes in attitudes and values after near-death experiences often used to evaluate personal transformation following spiritually oriented experiences and practices. (performed at Visit 5 and Visit 7). • q. Social Cognition Panel scales • i. Pictorial Empathy Test (PET) (performed at Visit 2, Visit 5, and Visit 7). • ii. Reading the Mind in the Eyes Test (RMET) (performed at Visit 2, Visit 5, and Visit 7). • iii. Social Value Orientation (SVO) (performed at Visit 2, Visit 5, and Visit 7). • iv. Toronto Empathy Questionnaire (TEQ) (performed at Visit 2, Visit 5, and Visit 7). • v. […]

CN(C)CCc1c[nH]c2cccc(OP(=O)(O)O)c12 [Psilocybin, psilocybin]
LCI appreciation for life, LS mean difference Psilocybin 10 mg-Placebo (Day 7): 0.6 | LCI appreciation for life, LS mean difference Psilocybin 25 mg-Placebo (Day 7): 0.5 | LCI appreciation for life, LS mean difference Psilocybin (25 mg-10 mg) (Day 7): −0.2 | LCI appreciation of death, LS mean difference Psilocybin 10 mg-Placebo (Day 7): 0.1 | LCI appreciation of death, LS mean difference Psilocybin 25 mg-Placebo (Day 7): 0.1 | LCI appreciation of death, LS mean difference Psilocybin (25 mg-10 mg) (Day 7): −0.0 | LCI concern for others, LS mean difference Psilocybin 10 mg-Placebo (Day 7): 0.4 | LCI concern for others, LS mean difference Psilocybin 25 mg-Placebo (Day 7): 0.4 | LCI concern for others, LS mean difference Psilocybin (25 mg-10 mg) (Day 7): 0.0 | LCI concern for worldly achievement, LS mean difference Psilocybin 10 mg-Placebo (Day 7): −0.2 | LCI concern for worldly achievement, LS mean difference Psilocybin 25 mg-Placebo (Day 7): −0.1 | LCI concern for worldly achievement, LS mean difference Psilocybin (25 mg-10 mg) (Day 7): 0.1 | LCI concern social, LS mean difference Psilocybin 10 mg-Placebo (Day 7): 0.1 | LCI concern social, LS mean difference Psilocybin 25 mg-Placebo (Day 7): 0.2 | LCI concern social, LS mean difference Psilocybin (25 mg-10 mg) (Day 7): 0.1 | LCI quest for meaning, LS mean difference Psilocybin 10 mg-Placebo (Day 7): 0.4 | LCI quest for meaning, LS mean difference Psilocybin 25 mg-Placebo (Day 7): 0.4 | LCI quest for meaning, LS mean difference Psilocybin (25 mg-10 mg) (Day 7): 0.0 | LCI religiousness, LS mean difference Psilocybin 10 mg-Placebo (Day 7): −0.1 | LCI religiousness, LS mean difference Psilocybin 25 mg-Placebo (Day 7): 0.0 | LCI religiousness, LS mean difference Psilocybin (25 mg-10 mg) (Day 7): 0.1 | LCI self-acceptance, LS mean difference Psilocybin 10 mg-Placebo (Day 7): 0.7 | LCI self-acceptance, LS mean difference Psilocybin 25 mg-Placebo (Day 7): 0.5 | LCI self-acceptance, LS mean difference Psilocybin (25 mg-10 mg) (Day 7): −0.1 | LCI spirituality, LS mean difference Psilocybin 10 mg-Placebo (Day 7): 0.3 | LCI spirituality, LS mean difference Psilocybin 25 mg-Placebo (Day 7): 0.2 | LCI spirituality, LS mean difference Psilocybin (25 mg-10 mg) (Day 7): −0.1 | LCI-absolute change, LS mean difference Psilocybin 10 mg-Placebo (Day 7): 0.4 | LCI-absolute change, LS mean difference Psilocybin 25 mg-Placebo (Day 7): 0.3 | LCI-absolute change, LS mean difference Psilocybin (25 mg-10 mg) (Day 7): −0.1 | LCI appreciation for life, LS mean difference Psilocybin 10 mg-Placebo (Day 84): 0.6 | LCI appreciation for life, LS mean difference Psilocybin 25 mg-Placebo (Day 84): 0.5 | LCI appreciation for life, LS mean difference Psilocybin (25 mg-10 mg) (Day 84): −0.1 | LCI appreciation of death, LS mean difference Psilocybin 10 mg-Placebo (Day 84): 0.2 | LCI appreciation of death, LS mean difference Psilocybin 25 mg-Placebo (Day 84): 0.2 | LCI appreciation of death, LS mean difference Psilocybin (25 mg-10 mg) (Day 84): 0.0 | LCI concern for others, LS mean difference Psilocybin 10 mg-Placebo (Day 84): 0.4 | LCI concern for others, LS mean difference Psilocybin 25 mg-Placebo (Day 84): 0.5 | LCI concern for others, LS mean difference Psilocybin (25 mg-10 mg) (Day 84): 0.1 | LCI concern for worldly achievement, LS mean difference Psilocybin 10 mg-Placebo (Day 84): −0.2 | LCI concern for worldly achievement, LS mean difference Psilocybin 25 mg-Placebo (Day 84): −0.1 | LCI concern for worldly achievement, LS mean difference Psilocybin (25 mg-10 mg) (Day 84): 0.1 | LCI concern social, LS mean difference Psilocybin 10 mg-Placebo (Day 84): 0.1 | LCI concern social, LS mean difference Psilocybin 25 mg-Placebo (Day 84): 0.1 | LCI concern social, LS mean difference Psilocybin (25 mg-10 mg) (Day 84): 0.0 | LCI quest for meaning, LS mean difference Psilocybin 10 mg-Placebo (Day 84): 0.4 | LCI quest for meaning, LS mean difference Psilocybin 25 mg-Placebo (Day 84): 0.4 | LCI quest for meaning, LS mean difference Psilocybin (25 mg-10 mg) (Day 84): −0.0 | LCI religiousness, LS mean difference Psilocybin 10 mg-Placebo (Day 84): −0.0 | LCI religiousness, LS mean difference Psilocybin 25 mg-Placebo (Day 84): 0.0 | LCI religiousness, LS mean difference Psilocybin (25 mg-10 mg) (Day 84): 0.1 | LCI self-acceptance, LS mean difference Psilocybin 10 mg-Placebo (Day 84): 0.5 | LCI self-acceptance, LS mean difference Psilocybin 25 mg-Placebo (Day 84): 0.5 | LCI self-acceptance, LS mean difference Psilocybin (25 mg-10 mg) (Day 84): 0.0 | LCI spirituality, LS mean difference Psilocybin 10 mg-Placebo (Day 84): 0.4 | LCI spirituality, LS mean difference Psilocybin 25 mg-Placebo (Day 84): 0.4 | LCI spirituality, LS mean difference Psilocybin (25 mg-10 mg) (Day 84): −0.0 | LCI-absolute change, LS mean difference Psilocybin 10 mg-Placebo (Day 84): 0.4 | LCI-absolute change, LS mean difference Psilocybin 25 mg-Placebo (Day 84): 0.4 | LCI-absolute change, LS mean difference Psilocybin (25 mg-10 mg) (Day 84): −0.0 | LCI appreciation for life, LS mean (Psilocybin 10 mg, Day 7): 0.8 | LCI appreciation of death, LS mean (Psilocybin 10 mg, Day 7): 0.2 | LCI concern for others, LS mean (Psilocybin 10 mg, Day 7): 0.5 | LCI concern for worldly achievement, LS mean (Psilocybin 10 mg, Day 7): −0.2 | LCI concern social, LS mean (Psilocybin 10 mg, Day 7): 0.2 | LCI quest for meaning, LS mean (Psilocybin 10 mg, Day 7): 0.5 | LCI religiousness, LS mean (Psilocybin 10 mg, Day 7): −0.0 | LCI self-acceptance, LS mean (Psilocybin 10 mg, Day 7): 0.8 | LCI spirituality, LS mean (Psilocybin 10 mg, Day 7): 0.5 | LCI-absolute change, LS mean (Psilocybin 10 mg, Day 7): 0.5 | LCI appreciation for life, LS mean (Psilocybin 10 mg, Day 84): 0.8 | LCI appreciation of death, LS mean (Psilocybin 10 mg, Day 84): 0.2 | LCI concern for others, LS mean (Psilocybin 10 mg, Day 84): 0.5 | LCI concern for worldly achievement, LS mean (Psilocybin 10 mg, Day 84): −0.2 | LCI concern social, LS mean (Psilocybin 10 mg, Day 84): 0.2 | LCI quest for meaning, LS mean (Psilocybin 10 mg, Day 84): 0.5 | LCI religiousness, LS mean (Psilocybin 10 mg, Day 84): −0.0 | LCI self-acceptance, LS mean (Psilocybin 10 mg, Day 84): 0.6 | LCI spirituality, LS mean (Psilocybin 10 mg, Day 84): 0.5 | LCI-absolute change, LS mean (Psilocybin 10 mg, Day 84): 0.5 | LCI appreciation for life, LS mean (Psilocybin 25 mg, Day 7): 0.6 | LCI appreciation of death, LS mean (Psilocybin 25 mg, Day 7): 0.1 | LCI concern for others, LS mean (Psilocybin 25 mg, Day 7): 0.6 | LCI concern for worldly achievement, LS mean (Psilocybin 25 mg, Day 7): −0.2 | LCI concern social, LS mean (Psilocybin 25 mg, Day 7): 0.2 | LCI quest for meaning, LS mean (Psilocybin 25 mg, Day 7): 0.5 | LCI religiousness, LS mean (Psilocybin 25 mg, Day 7): 0.0 | LCI self-acceptance, LS mean (Psilocybin 25 mg, Day 7): 0.6 | LCI spirituality, LS mean (Psilocybin 25 mg, Day 7): 0.4 | LCI-absolute change, LS mean (Psilocybin 25 mg, Day 7): 0.4 | LCI appreciation for life, LS mean (Psilocybin 25 mg, Day 84): 0.7 | LCI appreciation of death, LS mean (Psilocybin 25 mg, Day 84): 0.3 | LCI concern for others, LS mean (Psilocybin 25 mg, Day 84): 0.7 | LCI concern for worldly achievement, LS mean (Psilocybin 25 mg, Day 84): −0.1 | LCI concern social, LS mean (Psilocybin 25 mg, Day 84): 0.2 | LCI quest for meaning, LS mean (Psilocybin 25 mg, Day 84): 0.5 | LCI religiousness, LS mean (Psilocybin 25 mg, Day 84): 0.0 | LCI self-acceptance, LS mean (Psilocybin 25 mg, Day 84): 0.6 | LCI spirituality, LS mean (Psilocybin 25 mg, Day 84): 0.5 | LCI-absolute change, LS mean (Psilocybin 25 mg, Day 84): 0.5

Source: patent publication US20230023092A1, “TREATMENT OF DEPRESSION AND OTHER VARIOUS DISORDERS WITH PSILOCYBIN” (COMPASS […], priority 2019, published 2023)
